The results in this text go back to patent US9243278B2, “Mechanotransduction by the synergistic action of heterotypic cell interactions” (Brown University, priority 2011, dated 2016).

The test system of experiment [1] is rat hepatocyte cell line (H35). The experiment is described as follows: toroid-on-cone cell power assay, homotypic H35 toroids. The experiment is classed as cell-based. The procedure: Toroid molds suitable for side view microcopy were designed as previously described (9). Toroid molds were designed using the computer aided design (CAD) software Solid Works (Solid Works Corporation, Concord, Mass., USA). The mold was designed with 12 features to create wells. Each feature is a rounded edged (350 μm in diameter) cylinder (1.1 mm) with a cone indent in the center. The slope of the central cone was 65° and it is 650 μm in diameter. CAD files were used to produce thermowax molds with a rapid prototyping machine (3D Systems Corporation, Valencia, Calif.).
Wax molds were used to cast 13% polyacrylamide gels. Gels were removed from wax molds and transferred to six well culture plates. Each of the resulting wells is a circular trough confined by the hydrogel wall at the outer edge of the trough and by a conical peg on the inner edge of the trough. The gels were rinsed with fresh culture medium and then equilibrated overnight at 37° C. in 4 ml of DMEM supplemented with 1% penicillin/streptomycin (pen/strep). After equilibration, the medium was removed, and the gels were rinsed with fresh medium.
NHFs (passage 4-10), derived from neonatal foreskins, and H35s (passage 5-11) were grown in T-175 flasks in DMEM with 10% FBS and 1% pen/strep at 37° C. and 10% CO2. Cells were removed from flasks using a standard trypsin process. Briefly, cells were exposed to 0.05% trypsin for 10 minutes, quenched with serum containing medium, spun down at 800 rpm for 6 minutes, resuspended in a known volume of medium, and counted using a hemocytometer. Cell solution (70 μl) was added to each hydrogel. After 30 minutes, 4 ml of fresh medium was added to each of the wells. After seeding, images of the samples were taken every 2 hours for about 8 hours. Pure NHF microtissues were seeded with about 10,500, about 21,000, about 25,000 or about 35,000 cells/well. Heterotypic microtissues were seeded at ratios of about 1:1, about 2:3, about 1:4; about 1:6, about 1:10, about 1:16, and about 1:20 (NHF:H35). The seeding per well for heterotypic samples was kept constant at about 21,000 cells/well. For TGF-β1 experiments, NHFs and H35s were incubated for 48 hours in DMEM with 10% FBS, 1% penn/strep and 5 ng/ml human recombinant TGF-β1 (Invitrogen, Carlsbad, Calif., USA), passed according to standard protocol, and seeded at about 21,000 cells/well. NHFs^TGF-β1 coseeded with H35s were seeded in DMEM with 10% FBS, 1% penn/strep without additional TGF-β1.
To investigate the effect of paracrine factors, media from homotypic toroids containing about 10,500 H35s and from homotypic toroids containing about 10,500 NHFs was collected. The conditioned media was seeded about 10,500 NHFs with the media collected from the H35s and also seeded about 10,500 H35s with the media collected from the NHFs. Power was analyzed at four hours since this is the time enhanced power for heterotypic toroids which contained about 10,500 H35s and about 10,500 NHFs (1:1 samples).
Convential view fluorescent and phase images were captured using Carl Zeiss Axio Observer Z1 with an AxioCam Mrm camera (Carl Zeiss MicroImaging, Thornwood, N.Y., USA). To capture side view images, a Mitutoyo FS-110 microscope was modified to lie on its back and a translational stage was added to hold samples. […]
The range of power exerted by increasing numbers of NHFs (>3 fold) in a homotypic environment by seeding the cells into non-adhesive hydrogels with toroid recesses, each with a central cone (65° slope) was measured. […]

A further experiment deals with NHFs and H35s. The experiment is described as follows: self-sorting of fluorescently labeled NHFs and H35s in microtissues. The experiment is classed as cell-based, human, rat. The procedure: For sorting experiments, NHFs and H35s were incubated with 2.5 μM CellTracker™ Red CMPTX and CellTracker™ Green CMFDA™ (Invitrogen, Carlsbad, Calif., USA), respectively, in serum free media for 30 minutes. After incubation, the dye was aspirated and the cells equilibrated in serum media for 1 hour prior to passing. For NHF^TGF-β1:H35 sorting experiments NHFs were incubated for 48 hours in DMEM with 10% FBS, 1% penn/strep and 5 ng/ml TGF-β1. After incubation the NHF^TGF-β1 and H35s were fluorescently labeled and passed as previously described.
Convential view fluorescent and phase images were captured using Carl Zeiss Axio Observer Z1 with an AxioCam Mrm camera (Carl Zeiss MicroImaging, Thornwood, N.Y., USA). To capture side view images, a Mitutoyo FS-110 microscope was modified to lie on its back and a translational stage was added to hold samples. Samples were imaged in bright field through the eyepiece of the microscope. […]
Using self sorting to identify drugs, TGF-β1 is a growth factor linked to fibrosis and well known for its ability to increase cell mediated contraction and synthesis of extracellular matrix proteins such as collagen. […] Also, as self-sorting proceeds the quantity of heterotypic interface decreases and the homotypic interface increases as cells partition. […]

Where [2] appears, read: H35^TGF-β1 homotypic toroid, 24 hours.

“Also recorded” adds a separate entry of the source.

transforming growth factor-β1 [TGF-β1]: in experiment [1] (setting [2]), the Toroid Power is 0.45 ± 0.08 pJ/h and the cell power is 0.022 ± 0.004 fJ/h. Moreover, the “change in H35 power compared to untreated controls” value in experiment [1] (homotypic H35 toroids treated with TGF-β1) is recorded as “doubled”. Also, the “Toroid Power” value in experiment [1] (homotypic toroid 100% H35^TGF-β) worked out at 0.45 pJ/h. Further, in experiment [1] (homotypic toroid 100% H35^TGF-β versus control), the “Enhancement in Toroid Power” value was determined as 0.19 pJ/h. For the same substance, in the experiment with NHFs and H35s (NHF^TGF-β1:H35 toroids (1:10), up to 24 hours), the “self-sorting of NHFs and H35s in heterotypic toroids” value is reported as “prevented sorting; also recorded: reduced; also recorded: sorting was eliminated”. Besides, the “self-sorting of NHFs and H35s in spheroids” value in the experiment on NHFs and H35s (mixes (1:1) of NHFs and H35s treated with TGF-β1) was “inhibited self-sorting”.
